# Test results as given in patent US9850283B2, “Macrocyclic inhibitors of the PD-1/PD-L1 and CD80(B7-1)/PD-L1 protein/protein interactions” (BRISTOL-MYERS SQUIBB COMPANY, priority 2013, dated 2017).
# pIC50: −log10 of the molar value. Where two headings read alike, the source gives them in different places. Positions of bridges follow the written chain, without caps; N, C: chain ends. Non-standard residues stand in square brackets, D forms with d. Residues, ends and D or L forms follow the SMILES beside them. ξ: configuration not given here. Phe(3,4,5-F3) = N[C@@H](Cc1cc(F)c(F)c(F)c1)C(=O)O; Phe(4-CH2NH2) = NCc1ccc(C[C@H](N)C(=O)O)cc1; Pro(5S-Me) = C[C@H]1CC[C@@H](C(=O)O)N1; d(cisHyp) = O=C(O)[C@H]1C[C@@H](O)CN1; Bta = N[C@@H](Cc1csc2ccccc12)C(=O)O; Hyp = O=C(O)[C@@H]1C[C@@H](O)CN1; NMeF = CN[C@@H](Cc1ccccc1)C(=O)O; dHyp = O=C(O)[C@H]1C[C@H](O)CN1; NMeNle = CCCC[C@H](NC)C(=O)O; dPip = O=C(O)[C@H]1CCCCN1; hSer = N[C@@H](CCO)C(=O)O; NMeA = CN[C@@H](C)C(=O)O; Orn = NCCC[C@H](N)C(=O)O; Dab = NCC[C@H](N)C(=O)O; Dap = NC[C@H](N)C(=O)O; ξhCys = NC(CCS)C(=O)O; ξC = NC(CS)C(=O)O; Sar = CNCC(=O)O
# Experiments:
# Human PD-L1/PD-1 = target: T1, Human PD-L1/PD-1 (Homo sapiens, UniProt Q9NZQ7); assay: HTRF PD-1-Ig/PD-L1-His binding assay (human PD-L1); conditions: cluster symbol; read-out: HTRF IC50 cluster
# T1 construct: made in house; host or cells: HEK293T
# T1 sequence (Q9NZQ7 with tags, fused parts or gaps): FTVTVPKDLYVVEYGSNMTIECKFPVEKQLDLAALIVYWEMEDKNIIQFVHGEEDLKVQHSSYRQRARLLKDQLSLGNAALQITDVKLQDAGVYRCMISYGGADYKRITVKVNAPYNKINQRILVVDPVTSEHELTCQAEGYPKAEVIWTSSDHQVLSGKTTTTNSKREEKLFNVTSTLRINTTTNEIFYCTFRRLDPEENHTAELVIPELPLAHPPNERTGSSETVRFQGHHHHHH
# Outline: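 HTRF read-out: Eu cryptate anti-Ig mAb 1 nM final, APC anti-His mAb 20 nM final, added over the binding reaction. Proteins were PD-1-Ig and PD-L1-His ectodomain fusions. Buffer was dPBS, 0.1% BSA, 0.05% Tween-20.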
# [1] = target: T2, LK35.2-hPD-L1 cells / PE-labeled PD-1-Ig (Homo sapiens, UniProt Q9NZQ7); assay: LK35.2-hPD-L1 cell binding high-content screening assay; assay type: cell-based; conditions: cluster symbol, read-out: CBA IC50 cluster
# T2 construct: expressed in transfected cells; host or cells: LK35.2 mouse B cell line
# T2 sequence (Q9NZQ7 19-290): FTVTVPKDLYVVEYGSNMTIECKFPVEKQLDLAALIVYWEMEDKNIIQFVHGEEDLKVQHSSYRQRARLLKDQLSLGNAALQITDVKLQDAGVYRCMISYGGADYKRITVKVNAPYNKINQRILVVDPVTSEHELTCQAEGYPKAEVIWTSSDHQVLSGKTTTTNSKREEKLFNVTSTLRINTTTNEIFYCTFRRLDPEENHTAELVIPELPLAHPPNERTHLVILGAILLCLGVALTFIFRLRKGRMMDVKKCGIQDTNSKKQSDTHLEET
# Protocol: LK35.2-hPD-L1 Cell Binding High-Content Screening Assay. Phycoerythrin (PE) was covalently linked to the Ig epitope tag of human PD-1-Ig and fluorescently-labeled PD-1-Ig was used for binding studies with a mouse B cell line (LK35.2) stably over-expressing human PD-L1 (LK35.2-hPD-L1). Briefly, 3×10^3 LK35.2-hPD-L1 cells were seeded into 384 well plates in 20 ul of RPMI supplemented with 10% fetal calf serum and cultured overnight. 125 nl of compound was added to cells, followed by 5 ul of PE-labeled PD-1-Ig (1 nM final), diluted in RPMI supplemented with 10% fetal calf serum, followed by incubation at 37° C. for 1 h. […] Cells were washed 3× in 100 ul of dPBS followed by final addition of 15 ul of dPBS. Data was collected and processed using a Cell Insight NXT High Content Imager and associated software.
# [2] = cell binding assay, cell line not given
# [3] = cell line of CBA not given (LK35.2-hPD-L1 or 293T-hPD-L1)
SMILES,pIC50 (Human PD-L1/PD-1),"pIC50 [1, 2]","pIC50 [1, 3]"
CCCC[C@H]1C(=O)N(C)[C@@H](CCCC)C(=O)N[C@@H](CCCNC(=N)N)C(=O)NC(C(=O)NCC(N)=O)CCSCC(=O)N[C@@H](Cc2ccc(O)cc2)C(=O)N(C)[C@@H](C)C(=O)N[C@@H](CC(N)=O)C(=O)N2CCC[C@H]2C(=O)N[C@@H](Cc2cnc[nH]2)C(=O)N[C@@H](CC(C)C)C(=O)N2C[C@H](O)C[C@H]2C(=O)N[C@@H](Cc2c[nH]c3ccccc23)C(=O)N[C@@H](CO)C(=O)N[C@@H](Cc2c[nH]c3ccccc23)C(=O)N1C (some centres unmarked) [Example 9021] ({CH2CO}-Y[NMeA]NPHL[Hyp]WSW[NMeNle][NMeNle]R[ξhCys]G-NH2; thioether N-14),7.52 to 8.17,< 7.13,
CCCC[C@H]1C(=O)N(C)CC(=O)N[C@@H](CC(=O)O)C(=O)N[C@@H](C(C)C)C(=O)N(C)[C@@H](Cc2ccccc2)C(=O)N[C@@H](Cc2ccc(O)cc2)C(=O)N2C[C@@H](O)C[C@@H]2C(=O)N[C@@H](Cc2c[nH]c3ccccc23)C(=O)N[C@@H](Cc2ccc(O)cc2)C(=O)N[C@@H](CC(C)C)C(=O)N[C@H](C(=O)NCC(N)=O)CSCC(=O)N[C@@H](Cc2ccccc2)C(=O)N(C)[C@@H](Cc2ccccc2)C(=O)N1C [Example 3576] ({CH2CO}-F[NMeF][NMeNle][Sar]DV[NMeF]Y[dHyp]WYLCG-NH2; thioether N-13),7.52 to 8.17,7.14 to 8.32,
CCCC[C@H]1C(=O)N(C)CC(=O)N[C@@H](CC(=O)O)C(=O)N[C@@H](C(C)C)C(=O)N(C)[C@@H](Cc2ccccc2)C(=O)N[C@@H](Cc2ccc(O)cc2)C(=O)N(C)CC(=O)N[C@@H](Cc2ccc(CN)cc2)C(=O)N[C@@H](Cc2ccc(O)cc2)C(=O)N[C@@H](CC(C)C)C(=O)N[C@H](C(=O)NCC(N)=O)CSCC(=O)N[C@@H](Cc2ccccc2)C(=O)N(C)[C@@H](Cc2ccccc2)C(=O)N1C [Example 3513] ({CH2CO}-F[NMeF][NMeNle][Sar]DV[NMeF]Y[Sar][Phe(4-CH2NH2)]YLCG-NH2; thioether N-13),< 7.52,< 7.13,
CCCC[C@H]1C(=O)N(C)[C@@H](CCCC)C(=O)N[C@@H](CCCNC(=N)N)C(=O)N[C@H](C(=O)NCC(N)=O)CSCC(=O)N[C@@H](Cc2ccc(CN)cc2)C(=O)N(C)[C@@H](C)C(=O)N[C@@H](CC(N)=O)C(=O)N2CCC[C@H]2C(=O)N[C@@H](CN)C(=O)N[C@@H](CC(C)C)C(=O)N2C[C@H](O)C[C@H]2C(=O)N[C@@H](Cc2c[nH]c3ccccc23)C(=O)N[C@@H](CO)C(=O)N[C@@H](Cc2c[nH]c3ccccc23)C(=O)N1C [Example 7042] ({CH2CO}-[Phe(4-CH2NH2)][NMeA]NP[Dap]L[Hyp]WSW[NMeNle][NMeNle]RCG-NH2; thioether N-14),7.52 to 8.17,7.14 to 8.32,
"CCCC[C@H]1C(=O)N2C[C@H](O)C[C@@H]2C(=O)N[C@@H](CC(N)=O)C(=O)N[C@@H](C(C)C)C(=O)N(C)[C@@H](Cc2ccccc2)C(=O)N[C@@H](Cc2ccc(O)cc2)C(=O)N2CCCC[C@@H]2C(=O)N[C@@H](Cc2c[nH]c3ccccc23)C(=O)N[C@@H](Cc2ccc(O)cc2)C(=O)N[C@@H](CCCCN)C(=O)N[C@H](C(=O)NCC(N)=O)CSCC(=O)N[C@@H](Cc2cc(F)c(F)c(F)c2)C(=O)N(C)[C@@H](Cc2ccccc2)C(=O)N1C [Example 3589] ({CH2CO}-[Phe(3,4,5-F3)][NMeF][NMeNle][d(cisHyp)]NV[NMeF]Y[dPip]WYKCG-NH2; thioether N-13)",8.17 to 9.41,8.33 to 9.80,
CCCC[C@H]1C(=O)N(C)[C@@H](CCCC)C(=O)N[C@@H](CCCNC(=N)N)C(=O)NC(C(=O)NCC(N)=O)CSCC(=O)N[C@@H](Cc2ccc(O)cc2)C(=O)N(C)[C@@H](C)C(=O)N[C@@H](CC(N)=O)C(=O)N2[C@@H](C)CC[C@H]2C(=O)N[C@@H](Cc2cnc[nH]2)C(=O)N[C@@H](CC(C)C)C(=O)N2CCC[C@H]2C(=O)N[C@@H](Cc2c[nH]c3ccccc23)C(=O)N[C@@H](CO)C(=O)N[C@@H](Cc2c[nH]c3ccccc23)C(=O)N1C (stereo partly drawn) [Example 9017] ({CH2CO}-Y[NMeA]N[Pro(5S-Me)]HLPWSW[NMeNle][NMeNle]R[ξC]G-NH2; thioether N-14),7.52 to 8.17,7.14 to 8.32,
CCCC[C@H]1C(=O)N(C)[C@@H](CCCC)C(=O)N[C@@H](CCCNC(=N)N)C(=O)NC(C(=O)NCC(N)=O)CSCC(=O)N[C@@H](Cc2ccc(O)cc2)C(=O)N(C)[C@@H](C)C(=O)N[C@@H](CC(N)=O)C(=O)N2CCC[C@H]2C(=O)N[C@@H](Cc2cnc[nH]2)C(=O)N[C@@H](CC(C)C)C(=O)N2C[C@H](O)C[C@H]2C(=O)N[C@@H](Cc2c[nH]c3ccccc23)C(=O)N[C@@H](CCO)C(=O)N[C@@H](Cc2c[nH]c3ccccc23)C(=O)N1C (some centres unmarked) [Example 9049] ({CH2CO}-Y[NMeA]NPHL[Hyp]W[hSer]W[NMeNle][NMeNle]R[ξC]G-NH2; thioether N-14),8.17 to 9.41,8.33 to 9.80,
"CCCC[C@H]1C(=O)N2CCC[C@@H]2C(=O)N[C@@H](CC(N)=O)C(=O)N[C@@H](C(C)C)C(=O)N(C)[C@@H](Cc2ccccc2)C(=O)N[C@@H](Cc2ccc(CN)cc2)C(=O)N2CCC[C@@H]2C(=O)N[C@@H](Cc2c[nH]c3ccccc23)C(=O)N[C@@H](Cc2ccc(O)cc2)C(=O)N[C@@H](CCCCN)C(=O)N[C@H](C(=O)NCC(N)=O)CSCC(=O)N[C@@H](Cc2cc(F)c(F)c(F)c2)C(=O)N(C)[C@@H](Cc2ccccc2)C(=O)N1C [Example 3198] ({CH2CO}-[Phe(3,4,5-F3)][NMeF][NMeNle][dP]NV[NMeF][Phe(4-CH2NH2)][dP]WYKCG-NH2; thioether N-13)",7.52 to 8.17,,8.33 to 9.80
CCCC[C@H]1C(=O)N(C)[C@@H](CCCC)C(=O)N[C@@H](CC(C)C)C(=O)N[C@H](C(=O)NCC(N)=O)CSCC(=O)N[C@@H](Cc2ccc(O)cc2)C(=O)N(C)[C@@H](C)C(=O)N[C@@H](CC(N)=O)C(=O)N(C)CC(=O)N[C@@H](Cc2c[nH]cn2)C(=O)N[C@@H](CCC(N)=O)C(=O)N2C[C@H](O)C[C@H]2C(=O)N[C@@H](Cc2c[nH]c3ccccc23)C(=O)N[C@@H](CO)C(=O)N[C@@H](Cc2c[nH]c3ccccc23)C(=O)N1C [Example 5084] ({CH2CO}-Y[NMeA]N[Sar]HQ[Hyp]WSW[NMeNle][NMeNle]LCG-NH2; thioether N-14),7.52 to 8.17,7.14 to 8.32,
CCCC[C@H]1C(=O)N2CCC[C@@H]2C(=O)N[C@@H](CCCN)C(=O)N[C@H](C(=O)NCC(N)=O)CSCC(=O)N[C@@H](Cc2ccc(O)cc2)C(=O)N(C)[C@@H](C)C(=O)N[C@@H](CC(N)=O)C(=O)N2CCC[C@H]2C(=O)N[C@@H](Cc2cnc[nH]2)C(=O)N[C@@H](CC(C)C)C(=O)N2CCC[C@H]2C(=O)N[C@@H](Cc2c[nH]c3ccccc23)C(=O)N[C@@H](CO)C(=O)N[C@@H](Cc2csc3ccccc23)C(=O)N1C [Example 5010] ({CH2CO}-Y[NMeA]NPHLPWS[Bta][NMeNle][dP][Orn]CG-NH2; thioether N-14),7.52 to 8.17,7.14 to 8.32,
CCCC[C@H]1C(=O)N(C)[C@@H](CCCC)C(=O)N[C@@H](CN)C(=O)N[C@H](C(=O)NCC(N)=O)CSCC(=O)N[C@@H](Cc2ccc(O)cc2)C(=O)N(C)[C@@H](C)C(=O)N[C@@H](CC(N)=O)C(=O)N2CCC[C@H]2C(=O)N[C@@H](CN)C(=O)N[C@@H](CCC(N)=O)C(=O)N2C[C@H](O)C[C@H]2C(=O)N[C@@H](Cc2c[nH]c3ccccc23)C(=O)N[C@@H](CCN)C(=O)N[C@@H](Cc2csc3ccccc23)C(=O)N1C [Example 1225] ({CH2CO}-Y[NMeA]NP[Dap]Q[Hyp]W[Dab][Bta][NMeNle][NMeNle][Dap]CG-NH2; thioether N-14),8.17 to 9.41,,8.33 to 9.80
CCCC[C@H]1C(=O)N(C)[C@@H](CCCC)C(=O)N[C@@H](CO)C(=O)N[C@H](C(=O)NCC(N)=O)CSCC(=O)N[C@@H](Cc2ccccc2)C(=O)N(C)[C@@H](C)C(=O)N[C@@H](CC(N)=O)C(=O)N2CCC[C@H]2C(=O)N[C@@H](Cc2cnc[nH]2)C(=O)N[C@@H](CC(C)C)C(=O)N(C)CC(=O)N[C@@H](Cc2c[nH]c3ccccc23)C(=O)N[C@@H](CO)C(=O)N[C@@H](Cc2c[nH]c3ccccc23)C(=O)N1C [Example 10001] ({CH2CO}-F[NMeA]NPHL[Sar]WSW[NMeNle][NMeNle]SCG-NH2; thioether N-14),7.52 to 8.17,< 7.13,
"CCCC[C@H]1C(=O)N2CCC[C@H]2C(=O)N[C@@H](CC(=O)O)C(=O)N[C@@H](C(C)C)C(=O)N(C)[C@@H](Cc2ccccc2)C(=O)N[C@@H](Cc2ccc(O)cc2)C(=O)N(C)CC(=O)N[C@@H](Cc2c[nH]c3ccccc23)C(=O)N[C@@H](Cc2ccc(O)cc2)C(=O)N[C@@H](CC(C)C)C(=O)N[C@H](C(=O)NCC(N)=O)CSCC(=O)N[C@@H](Cc2ccccc2)C(=O)N(C)[C@@H](Cc2ccccc2)C(=O)N1C [Example 3068] (HELM PEPTIDE1{[O=C(C[*:3])[*:2]].F.[meF].[CCCC[C@@H](C(=O)[*:2])N(C)[*:1]].P.D.V.[meF].Y.[Sar].W.Y.L.C.G.[am]}$PEPTIDE1,PEPTIDE1,1:R3-14:R3$$$V2.0)",< 7.52,,< 7.13
